Reference: patent publication US12606561B2, “Substituted pyrazolo[1,5-a][1,3,5]triazines as CDK inhibitors” (QURIENT CO., LTD., priority 2018, dated 2026)
pIC50: −log10 of the molar value. Where two headings read alike, the source gives them in different places.

How the values were obtained:
Experiment in all cases: In vitro IC50 profile for CDKs family kinase (33PanQinase Activity Assay, ProQinase)
Assay type in all cases: biochemical
[1] = molecular target: T1, 28 CDKs family protein kinases (Homo sapiens, UniProt P50613); conditions: CDK7/CycH/MAT1; read-out: CDK7 selectivity profile in CDKs family, IC50
T1 construct: purchased ProQinase GmbH; host or cells: Sf9 insect cells or E. coli
Method: (§1) The IC50 profile of compound 11 was determined using 28 CDKs family protein kinases through ProQinase GmbH (Freiburg, Germany). All the protocol and materials had been provided by ProQinase GmbH. Briefly, in the process, 90 μl H2O were added to each well of a compound dilution plate. To minimize potential precipitation, the H2O was added to the plate only a few minutes before the transfer of the compound solutions into the assay plates. The plate was shaken thoroughly, resulting in a “compound dilution plate/10% DMSO”. The compound dilution plate(s) were discarded at the end of the working day. For the assays (see below), 5 μl solution from each well of the compound dilution plate were transferred into the assay plates. The final volume of the assay was 50 μl. All compounds were tested at 10 final assay concentrations in the range from 1×10^−05 M to 3×10^−10 M. The final DMSO concentration in the reaction cocktails was 1% in all cases. All protein kinases provided by ProQinase were expressed in Sf9 insect cells or in E. coli as recombinant GST-fusion proteins or His-tagged proteins, either as full-length or enzymatically active fragments. All kinases were produced from human cDNAs and purified by either GSH affinity chromatography or immobilized metal affinity chromatography. The purity of the protein kinases was examined by SDS-PAGE/Coomassie staining, the identity was checked by mass spectroscopy. Kinases from external vendors, Carna Biosciences Inc.; Invitrogen Corp.; and Millipore Corp., were expressed, purified and quality-controlled by virtue of the vendors readings. A radiometric protein kinase assay (33PanQinase® Activity Assay) was used for measuring the kinase activity of the 28 protein kinases. All kinase assays were performed in 96-well FlashPlates™ from PerkinElmer (Boston, MA, USA) in a 50 μl reaction volume. The reaction cocktails were incubated at 30° C. for 60 minutes. The reaction was stopped with 50 μl of 2% (v/v) H3PO4, plates were aspirated and washed two times with 200 μl 0.9% (w/v) NaCl. Incorporation of ^33Pi was determined with a microplate scintillation counter (Microbeta, Wallac). All assays were performed with a BeckmanCoulter/SAGIAN™ Core System. As part of the data evaluation the low control value from a particular plate was subtracted from the high control value as well as from all 80 “compound values” of the corresponding plate. The residual activity (in %) for each well of a particular plate was calculated by using the following formula: Res. Activity (%)=100×[(cpm of compound−low control)/(high control−low control)].

[2] = molecular target: T2, 28 CDKs family protein kinases (Homo sapiens, UniProt Q00526); conditions: read-out: CDK7 selectivity profile in CDKs family, IC50
T2 construct: purchased ProQinase GmbH; host or cells: Sf9 insect cells or E. coli
T2 sequence (Q00526 whole entry): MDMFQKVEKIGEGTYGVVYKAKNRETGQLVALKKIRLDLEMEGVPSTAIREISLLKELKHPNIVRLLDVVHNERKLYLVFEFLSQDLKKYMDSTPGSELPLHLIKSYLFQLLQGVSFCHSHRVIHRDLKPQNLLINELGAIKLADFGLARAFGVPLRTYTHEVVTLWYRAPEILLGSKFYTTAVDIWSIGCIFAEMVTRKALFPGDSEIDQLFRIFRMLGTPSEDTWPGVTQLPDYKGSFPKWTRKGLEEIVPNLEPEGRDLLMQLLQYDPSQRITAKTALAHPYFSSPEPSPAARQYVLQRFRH
T2 sequence (P24863 whole entry partner): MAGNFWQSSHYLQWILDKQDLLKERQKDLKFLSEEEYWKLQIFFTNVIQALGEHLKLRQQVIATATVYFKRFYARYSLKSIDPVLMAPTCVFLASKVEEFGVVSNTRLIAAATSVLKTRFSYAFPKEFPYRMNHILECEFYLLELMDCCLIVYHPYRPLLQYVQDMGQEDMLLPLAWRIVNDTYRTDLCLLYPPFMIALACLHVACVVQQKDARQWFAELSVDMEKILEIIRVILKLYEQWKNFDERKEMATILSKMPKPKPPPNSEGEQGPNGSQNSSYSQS
Method: as §1

[3] = molecular target: T3, 28 CDKs family protein kinases (Homo sapiens, UniProt Q14004)
T3 construct: purchased ProQinase GmbH; host or cells: Sf9 insect cells or E. coli
T3 sequence (Q14004 whole entry): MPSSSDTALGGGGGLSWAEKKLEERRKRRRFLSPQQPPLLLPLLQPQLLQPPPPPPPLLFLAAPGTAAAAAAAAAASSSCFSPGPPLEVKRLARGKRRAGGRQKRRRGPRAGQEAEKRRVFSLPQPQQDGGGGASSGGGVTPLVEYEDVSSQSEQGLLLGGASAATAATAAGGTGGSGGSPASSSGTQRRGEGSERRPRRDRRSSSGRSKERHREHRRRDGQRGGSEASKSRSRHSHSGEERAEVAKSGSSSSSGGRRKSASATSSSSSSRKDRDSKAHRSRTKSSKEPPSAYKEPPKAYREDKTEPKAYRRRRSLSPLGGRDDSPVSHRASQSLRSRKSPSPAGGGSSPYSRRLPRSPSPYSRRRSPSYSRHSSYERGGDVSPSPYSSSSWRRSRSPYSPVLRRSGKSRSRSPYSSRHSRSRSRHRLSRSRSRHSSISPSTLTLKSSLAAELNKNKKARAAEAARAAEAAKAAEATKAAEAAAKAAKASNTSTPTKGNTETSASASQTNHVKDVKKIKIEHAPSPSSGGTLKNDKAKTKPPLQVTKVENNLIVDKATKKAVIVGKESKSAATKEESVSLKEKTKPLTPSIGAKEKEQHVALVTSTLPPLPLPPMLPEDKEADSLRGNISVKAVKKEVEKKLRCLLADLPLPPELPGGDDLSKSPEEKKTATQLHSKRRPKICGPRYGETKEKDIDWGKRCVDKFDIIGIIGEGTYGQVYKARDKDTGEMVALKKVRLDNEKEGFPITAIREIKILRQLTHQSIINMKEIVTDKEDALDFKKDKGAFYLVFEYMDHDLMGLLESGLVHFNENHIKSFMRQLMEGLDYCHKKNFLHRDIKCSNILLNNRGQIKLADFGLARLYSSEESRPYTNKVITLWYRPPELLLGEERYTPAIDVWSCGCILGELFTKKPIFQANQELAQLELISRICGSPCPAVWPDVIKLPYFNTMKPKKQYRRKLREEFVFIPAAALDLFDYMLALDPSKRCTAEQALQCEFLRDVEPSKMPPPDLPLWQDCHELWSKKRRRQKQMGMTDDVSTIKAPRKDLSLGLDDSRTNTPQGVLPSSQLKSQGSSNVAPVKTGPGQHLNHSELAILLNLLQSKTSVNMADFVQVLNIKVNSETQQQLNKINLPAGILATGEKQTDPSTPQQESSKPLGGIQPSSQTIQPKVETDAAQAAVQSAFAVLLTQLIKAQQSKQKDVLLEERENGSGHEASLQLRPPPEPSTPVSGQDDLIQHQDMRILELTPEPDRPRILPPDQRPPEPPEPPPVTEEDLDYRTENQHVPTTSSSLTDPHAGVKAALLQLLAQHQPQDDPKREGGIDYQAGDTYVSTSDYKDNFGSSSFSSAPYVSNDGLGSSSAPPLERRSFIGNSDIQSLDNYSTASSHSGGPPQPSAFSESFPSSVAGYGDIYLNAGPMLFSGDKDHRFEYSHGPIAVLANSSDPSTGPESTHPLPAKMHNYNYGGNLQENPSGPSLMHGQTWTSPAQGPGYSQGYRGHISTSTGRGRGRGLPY
T3 sequence (O75909 whole entry partner): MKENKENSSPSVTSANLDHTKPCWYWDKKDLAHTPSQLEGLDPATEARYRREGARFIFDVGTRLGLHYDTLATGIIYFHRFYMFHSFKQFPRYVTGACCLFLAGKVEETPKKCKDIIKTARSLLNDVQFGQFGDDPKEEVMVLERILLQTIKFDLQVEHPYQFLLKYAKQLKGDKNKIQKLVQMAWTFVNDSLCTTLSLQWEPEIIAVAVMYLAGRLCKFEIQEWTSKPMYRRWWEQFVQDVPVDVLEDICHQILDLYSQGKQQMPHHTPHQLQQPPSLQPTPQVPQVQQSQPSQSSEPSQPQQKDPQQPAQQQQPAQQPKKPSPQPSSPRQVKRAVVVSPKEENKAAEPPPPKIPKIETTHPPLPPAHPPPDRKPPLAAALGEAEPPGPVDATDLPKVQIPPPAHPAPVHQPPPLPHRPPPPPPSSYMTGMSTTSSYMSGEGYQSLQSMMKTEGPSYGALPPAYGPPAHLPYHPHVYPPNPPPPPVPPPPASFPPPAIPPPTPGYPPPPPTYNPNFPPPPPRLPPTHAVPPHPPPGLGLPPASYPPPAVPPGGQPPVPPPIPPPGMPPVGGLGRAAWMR
Method: as §1

[4] = molecular target: T4, 28 CDKs family protein kinases (Homo sapiens, UniProt Q07002); conditions: CDK18/CycY; read-out: CDK7 selectivity profile in CDKs family, IC50
T4 construct: purchased ProQinase GmbH; host or cells: Sf9 insect cells or E. coli
Method: as §1

[5] = molecular target: T5, 28 CDKs family protein kinases (Homo sapiens, UniProt P49336); conditions: CDK8/CycC; read-out: CDK7 selectivity profile in CDKs family, IC50
T5 construct: purchased ProQinase GmbH; host or cells: Sf9 insect cells or E. coli
Method: as §1

[6] = molecular target: T6, 28 CDKs family protein kinases (Homo sapiens, UniProt Q8IZL9); conditions: read-out: CDK7 selectivity profile in CDKs family, IC50
T6 construct: purchased ProQinase GmbH; host or cells: Sf9 insect cells or E. coli
Method: as §1

[7] = molecular target: T7, 28 CDKs family protein kinases (Homo sapiens, UniProt Q00534); conditions: read-out: CDK7 selectivity profile in CDKs family, IC50
T7 construct: purchased ProQinase GmbH; host or cells: Sf9 insect cells or E. coli
Method: as §1

[8] = molecular target: T8, 28 CDKs family protein kinases (Homo sapiens, UniProt Q00536); conditions: CDK16/CycY; read-out: CDK7 selectivity profile in CDKs family, IC50
T8 construct: purchased ProQinase GmbH; host or cells: Sf9 insect cells or E. coli
T8 sequence (Q00536 whole entry): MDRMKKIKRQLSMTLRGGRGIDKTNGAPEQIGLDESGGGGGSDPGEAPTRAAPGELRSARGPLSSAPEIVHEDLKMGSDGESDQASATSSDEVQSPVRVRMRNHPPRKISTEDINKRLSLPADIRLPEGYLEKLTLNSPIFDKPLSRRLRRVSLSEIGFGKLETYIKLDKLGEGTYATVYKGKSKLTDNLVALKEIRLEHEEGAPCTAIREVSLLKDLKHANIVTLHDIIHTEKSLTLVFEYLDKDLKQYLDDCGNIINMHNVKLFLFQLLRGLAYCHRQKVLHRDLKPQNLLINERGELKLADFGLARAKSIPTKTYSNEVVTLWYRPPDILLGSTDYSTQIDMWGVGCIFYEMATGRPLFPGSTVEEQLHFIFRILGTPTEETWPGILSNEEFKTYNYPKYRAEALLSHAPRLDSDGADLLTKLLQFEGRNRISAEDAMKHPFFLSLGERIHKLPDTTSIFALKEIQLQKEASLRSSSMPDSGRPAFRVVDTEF
T8 sequence (Q8ND76 whole entry partner): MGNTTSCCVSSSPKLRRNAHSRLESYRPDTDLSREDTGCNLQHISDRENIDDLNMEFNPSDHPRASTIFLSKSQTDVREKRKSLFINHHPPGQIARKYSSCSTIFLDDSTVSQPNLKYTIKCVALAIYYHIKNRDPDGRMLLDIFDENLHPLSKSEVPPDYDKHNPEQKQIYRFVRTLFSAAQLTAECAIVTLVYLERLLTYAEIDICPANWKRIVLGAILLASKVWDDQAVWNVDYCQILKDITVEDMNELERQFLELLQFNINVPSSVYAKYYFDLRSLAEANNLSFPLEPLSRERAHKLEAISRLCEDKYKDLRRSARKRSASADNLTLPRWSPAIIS
Method: as §1

[9] = molecular target: T9, 28 CDKs family protein kinases (Homo sapiens, UniProt Q00537); conditions: CDK17/p35NCK; read-out: CDK7 selectivity profile in CDKs family, IC50
T9 construct: purchased ProQinase GmbH; host or cells: Sf9 insect cells or E. coli
Method: as §1

[10] = molecular target: T10, 28 CDKs family protein kinases (Homo sapiens, UniProt P11802); conditions: read-out: CDK7 selectivity profile in CDKs family, IC50
T10 construct: purchased ProQinase GmbH; host or cells: Sf9 insect cells or E. coli
Method: as §1

[11] = molecular target: T11, 28 CDKs family protein kinases (Homo sapiens, UniProt P06493); conditions: read-out: CDK7 selectivity profile in CDKs family, IC50
T11 construct: purchased ProQinase GmbH; host or cells: Sf9 insect cells or E. coli
Method: as §1

[12] = molecular target: T12, 28 CDKs family protein kinases (Homo sapiens, UniProt P50750); conditions: read-out: CDK7 selectivity profile in CDKs family, IC50
T12 construct: purchased ProQinase GmbH; host or cells: Sf9 insect cells or E. coli
Method: as §1

[13] = molecular target: T13, 28 CDKs family protein kinases (Homo sapiens, UniProt Q9NYV4); conditions: CDK12wt/CycK; read-out: CDK7 selectivity profile in CDKs family, IC50
T13 construct: purchased ProQinase GmbH; host or cells: Sf9 insect cells or E. coli
T13 sequence (Q9NYV4 whole entry): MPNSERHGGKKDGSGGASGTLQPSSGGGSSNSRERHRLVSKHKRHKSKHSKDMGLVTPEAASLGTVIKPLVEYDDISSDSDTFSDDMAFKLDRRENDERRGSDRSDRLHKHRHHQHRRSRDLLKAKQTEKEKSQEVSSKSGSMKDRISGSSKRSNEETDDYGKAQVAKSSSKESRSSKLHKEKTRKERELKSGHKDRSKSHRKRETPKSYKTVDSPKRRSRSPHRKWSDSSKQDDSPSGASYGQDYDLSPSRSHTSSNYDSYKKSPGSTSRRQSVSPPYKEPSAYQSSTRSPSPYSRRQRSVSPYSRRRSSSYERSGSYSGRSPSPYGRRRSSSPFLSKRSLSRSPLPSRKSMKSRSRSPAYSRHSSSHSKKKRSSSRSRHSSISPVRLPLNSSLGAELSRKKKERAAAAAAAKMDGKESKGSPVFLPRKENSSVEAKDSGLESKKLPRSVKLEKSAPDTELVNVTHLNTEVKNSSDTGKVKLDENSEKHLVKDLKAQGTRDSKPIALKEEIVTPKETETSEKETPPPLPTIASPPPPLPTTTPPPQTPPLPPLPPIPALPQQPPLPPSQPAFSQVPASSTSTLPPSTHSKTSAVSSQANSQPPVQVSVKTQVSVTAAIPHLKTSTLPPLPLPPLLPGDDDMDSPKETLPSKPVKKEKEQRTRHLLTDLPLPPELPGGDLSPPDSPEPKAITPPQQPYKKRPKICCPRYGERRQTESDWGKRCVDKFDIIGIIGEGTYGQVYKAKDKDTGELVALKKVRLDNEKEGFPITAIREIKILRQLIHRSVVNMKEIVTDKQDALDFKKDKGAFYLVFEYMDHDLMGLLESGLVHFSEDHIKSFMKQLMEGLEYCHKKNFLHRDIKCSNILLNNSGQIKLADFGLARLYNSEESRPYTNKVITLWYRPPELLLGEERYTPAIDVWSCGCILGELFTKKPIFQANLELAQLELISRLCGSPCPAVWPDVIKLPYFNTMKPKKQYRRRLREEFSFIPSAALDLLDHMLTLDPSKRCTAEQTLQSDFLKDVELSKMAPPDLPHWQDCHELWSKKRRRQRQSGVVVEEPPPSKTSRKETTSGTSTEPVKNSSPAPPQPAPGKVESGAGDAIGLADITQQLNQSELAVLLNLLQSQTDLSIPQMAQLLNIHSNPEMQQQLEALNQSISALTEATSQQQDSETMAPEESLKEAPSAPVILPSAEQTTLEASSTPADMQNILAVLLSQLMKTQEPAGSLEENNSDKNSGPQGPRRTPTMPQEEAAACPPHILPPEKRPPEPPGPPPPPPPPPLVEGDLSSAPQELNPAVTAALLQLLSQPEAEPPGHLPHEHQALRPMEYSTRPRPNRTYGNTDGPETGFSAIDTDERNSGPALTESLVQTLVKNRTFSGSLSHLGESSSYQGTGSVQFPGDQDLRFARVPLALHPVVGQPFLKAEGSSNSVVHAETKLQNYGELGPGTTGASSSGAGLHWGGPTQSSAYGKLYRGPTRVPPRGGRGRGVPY
T13 sequence (O75909 whole entry partner): as the sequence (O75909 whole entry partner) above
Method: as §1

[14] = molecular target: T14, 28 CDKs family protein kinases (Homo sapiens, UniProt P24941); conditions: read-out: CDK7 selectivity profile in CDKs family, IC50
T14 construct: purchased ProQinase GmbH; host or cells: Sf9 insect cells or E. coli
Method: as §1

[15] = molecular target: T15, 28 CDKs family protein kinases (Homo sapiens, UniProt Q9BWU1); conditions: CDK19/CycC; read-out: CDK7 selectivity profile in CDKs family, IC50
T15 construct: purchased ProQinase GmbH; host or cells: Sf9 insect cells or E. coli
Method: as §1

In the case of CC(C)c1cnn2c(NCc3ccccc3-c3nccc4cc(NC(=O)/C=C/CN(C)C)ccc34)nc(N3CCC(N)CC3)nc12 [Compound 11], the pIC50 [1] was 7.60, the pIC50 ([2]; CDK3/CycC) was < 5.00 and the pIC50 ([2]; CDK3/CycE1) was < 5.00. The pIC50 [3] was < 5.00, the pIC50 [4] was < 5.00 and the pIC50 [5] was < 5.00. For the same compound, the pIC50 ([6]; CDK20/CycH) was < 5.00, the pIC50 ([6]; CDK20/CycT1) was < 5.00 and the pIC50 ([7]; CDK6/CycD1) was < 5.00. For the same compound, the pIC50 ([7]; CDK6/CycD2) was < 5.00, the pIC50 ([7]; CDK6/CycD3) was < 5.00 and the pIC50 [8] was < 5.00. The pIC50 [9] was < 5.00, the pIC50 ([10]; CDK4/CycD1) was < 5.00 and the pIC50 ([10]; CDK4/CycD2) was < 5.00. The pIC50 ([10]; CDK4/CycD3) was < 5.00, the pIC50 ([11]; CDK1/CycA2) was < 5.00 and the pIC50 ([11]; CDK1/CycB1) was < 5.00. The pIC50 ([11]; CDK1/CycE1) was < 5.00, the pIC50 ([12]; CDK9/CycK) was < 5.00 and the pIC50 ([12]; CDK9/CycT1) was < 5.00. For the same compound, the pIC50 [13] was < 5.00, the pIC50 ([14]; CDK2/CycA2) was < 5.00 and the pIC50 ([14]; CDK2/CycD1) was < 5.00. The pIC50 ([14]; CDK2/CycE1) was < 5.00 and the pIC50 [15] was < 5.00.
